In article PMC6916368, “Cell‐Based Optimization of Covalent Reversible Ketoamide Inhibitors Bridging the Unprimed to the Primed Site of the Proteasome β5 Subunit” (Chemmedchem, 2019):
Where two headings read alike, the source gives them in different places. Peptide text beside a SMILES is read from it. * marks the point of attachment. Cbz = O=C(OCc1ccccc1)*; OtBu = CC(C)(C)O*

What was measured:
[1] = test system: MV4‐11 cells; test: Cell viability endpoint assay (Celltiter Blue, 72 h); type: cell-based; conditions: Homo sapiens, MV4-11, mean±SD from two independent experiments
Method: Cell lines. MV4‐11 (ACC 102), Jurkat (ACC 282) and THP‐1 (ACC 16) cells were obtained from DSMZ and maintained at 37 °C and 5 % CO2 at densities between 0.2–1×10^6 cells per mL in RMPI‐1640 medium supplemented with 10 % FBS, L‐glutamine (2 mM) and penicillin/streptomycin.
Cell viability endpoint assay. For the determination of cytotoxicity of proteasome inhibitors 50.000 cells per well were plated in 90 μl RPMI‐1640 medium supplemented with 0.1 % FBS and incubated overnight at 37 °C and 5 % CO2. Inhibitors were serially diluted in RPMI‐1640 medium as 10‐fold stocks and added to cells giving the final concentration (1 nM to 10 μM, Figure S2–S4) and incubated for 72 h at 37 °C and 5 % CO2. Cell viability was determined using the Celltiter Blue assay (Promega) by adding 20 μl of reagent, incubation for 120 minutes at 37 °C and 5 % CO2 and fluorescent read‐out using a Tecan M1000 microplate reader. Dose‐response curves were fitted to the equation “Y=Bottom+(Top‐Bottom)/(1+10^(X−L°^gIC50))” using GraphPad Prism 7.02. IC50 values are determined from technical triplicates as mean value of two independent experiments. Standard deviations (Table S1) as well as dose response curves (SI chapter 2b) are given in the supplementary information.

[2] = target: T1, β5c subunit of isolated human 20S proteasome (Homo sapiens, UniProt P28074); test: Proteasome inhibition assay (20 S Proteasome Assay Kit, Suc‐LLVY‐AMC); type: biochemical; conditions: for inhibition at 1 µM: read-out: Inhibition cCP β5; for inhibition at 0.1 µM: read-out: Rel. Inhibition β5c
T1 construct: purchased Enzo Life Sciences
Method: (§1) Proteasome inhibition assay. […] The 20 S Proteasome Assay Kit for Drug Discovery was used according to the supplier's protocol using Suc‐LLVY‐AMC (β5), Bz‐VGR‐AMC (β2) or Z‐LLE‐AMC (β1) as substrates (Enzo Life Sciences). Single point measurements of residual activity of proteasome activity were performed at a final concentration of 100 nM (n=3, β5c, β5i) or 1 μM (n=1, β1c, β2c, β5c, β5i, SI chapter 2a, Table S1). […] Inhibitors were prepared in 2‐fold concentration (cfinal=100 nM) and added to proteasomes (mfinal=200 ng/well). After 30 min incubation, substrate was added (cfinal=100 μM), incubated for 60 minutes and fluorescence was read using a Tecan M1000 microplate reader. […] IC50 values were determined from technical duplicates as mean value of three independent experiments.

[3] = target: T2, β2c subunit of isolated human 20S proteasome (Homo sapiens, UniProt Q99436); test: Proteasome inhibition assay (20 S Proteasome Assay Kit, Bz‐VGR‐AMC); type: biochemical; conditions: c = 1 µM, n=1; read-out: Inhibition cCP β2
T2 construct: purchased Enzo Life Sciences
Method: Proteasome inhibition assay. Bortezomib (Selleckchem) and carfilzomib (MedChemExpress) were purchased and used without further purification. The 20 S Proteasome Assay Kit for Drug Discovery was used according to the supplier's protocol using Suc‐LLVY‐AMC (β5), Bz‐VGR‐AMC (β2) or Z‐LLE‐AMC (β1) as substrates (Enzo Life Sciences). Single point measurements of residual activity of proteasome activity were performed at a final concentration of 100 nM (n=3, β5c, β5i) or 1 μM (n=1, β1c, β2c, β5c, β5i, SI chapter 2a, Table S1). […] Inhibitors were prepared in 2‐fold concentration (cfinal=100 nM) and added to proteasomes (mfinal=200 ng/well). After 30 min incubation, substrate was added (cfinal=100 μM), incubated for 60 minutes and fluorescence was read using a Tecan M1000 microplate reader. Dose‐response curves were fitted to the equation Y=100/(1+10^((L°^gIC50−X)*HillSl°^pe)) using GraphPad Prism 7.02. IC50 values were determined from technical duplicates as mean value of three independent experiments.

[4] = target: T3, β1c subunit of isolated human 20S proteasome (Homo sapiens, UniProt P28072); test: Proteasome inhibition assay (20 S Proteasome Assay Kit, Z‐LLE‐AMC); type: biochemical; conditions: read-out: Inhibition cCP β1
T3 construct: purchased Enzo Life Sciences
Method: as §1

[5] = target: T4, β5i subunit of isolated human 20S proteasome (Homo sapiens, UniProt P28062); test: Proteasome inhibition assay (20 S Proteasome Assay Kit, Suc‐LLVY‐AMC); type: biochemical; conditions: for inhibition at 1 µM: c = 1 µM, n=1, read-out: Inhibition iCP β5; for inhibition at 0.1 µM: c=100 nM, read-out: Rel. Inhibition β5i
T4 construct: purchased Enzo Life Sciences
Method: as §1

Row | Structure (SMILES) | IC50 [1] | inhibition at 1 µM [3] | inhibition at 1 µM ([2]; c = 1 µM, n=1) | inhibition at 0.1 µM ([2]; c=100 nM) | inhibition at 1 µM [5] | inhibition at 0.1 µM [5] | inhibition at 1 µM ([4]; c = 1 µM, n=1) | inhibition at 1 µM [2] | inhibition at 0.1 µM [2] | inhibition at 1 µM [4]
1 | CC(C)C[C@@H](C=O)NC(=O)[C@H](CC(C)C)NC(=O)[C@H](CC(C)C)NC(=O)OCc1ccccc1 [Compound 4, MG132, reference compound] (Cbz-Leu-Leu-Leu-aldehyde) | 131 ± 12 nM | 21% | – | – | – | – | – | 82% | 43% | 27%
2 | CC(C)C[C@@H](C=O)NC(=O)[C@H](CC(=O)OC(C)(C)C)NC(=O)[C@H](CC(C)C)NC(=O)OCc1ccccc1 [Compound 5, BSc2118, reference compound] (Cbz-Leu-Asp(OtBu)-Leu-aldehyde) | 123 ± 12 nM | 4% | 90% | 54% | 72% | 11% | 16% | – | – | –
3 | Cc1cc(C)c(Oc2ccccc2)cc1NC(=O)C(=O)[C@H](CC(C)C)NC(=O)[C@H](CC(C)C)NC(=O)[C@H](CC(C)C)NC(=O)OCc1ccccc1 [Compound 11, Benzyl((S)‐1‐(((S)‐1‐(((S)‐1‐((2,4‐dimethyl‐5‐phenoxyphenyl)amino)‐5‐methyl‐1,2‐dioxo‐hexan‐3‐yl)amino)‐4‐methyl‐1‐oxopentan‐2‐yl)amino)‐4‐methyl‐1‐oxopentan‐2‐yl)carbama‐te] | 19 ± 1 nM | 10% | 59% | 46% | 10% | 12% | -10% | – | – | –
4 | Cc1ccc(NC(=O)C(=O)[C@H](CC(C)C)NC(=O)[C@H](CC(C)C)NC(=O)[C@H](CC(C)C)NC(=O)OCc2ccccc2)cc1Oc1ccccc1 [Compound 13, Benzyl((S)‐4‐methyl‐1‐(((S)‐4‐methyl‐1‐(((S)‐5‐methyl‐1‐((4‐methyl‐3‐phenoxyphenyl)‐amino)‐1,2‐dioxohexan‐3‐yl)amino)‐1‐oxopentan‐2‐yl)amino)‐1‐oxopentan‐2‐yl)carbamate] | 23 ± 2 nM | 4% | 69% | 49% | 15% | 28% | -4% | – | – | –
5 | Cc1c(NC(=O)C(=O)[C@H](CC(C)C)NC(=O)[C@H](CC(C)C)NC(=O)[C@H](CC(C)C)NC(=O)OCc2ccccc2)cccc1Oc1ccccc1 [Compound 14, Benzyl((S)‐4‐methyl‐1‐(((S)‐4‐methyl‐1‐(((S)‐5‐methyl‐1‐((2‐methyl‐3‐phenoxyphenyl)‐amino)‐1,2‐dioxohexan‐3‐yl)amino)‐1‐oxopentan‐2‐yl)amino)‐1‐oxopentan‐2‐yl)carbamate] | 27 ± 8 nM | 5% | 78% | 41% | 30% | 29% | -10% | – | – | –
6 | Cc1ccc(Oc2ccccc2)cc1NC(=O)C(=O)[C@H](CC(C)C)NC(=O)[C@H](CC(C)C)NC(=O)[C@H](CC(C)C)NC(=O)OCc1ccccc1 [Compound 15, Benzyl((S)‐4‐methyl‐1‐(((S)‐4‐methyl‐1‐(((S)‐5‐methyl‐1‐((2‐methyl‐5‐phenoxyphenyl)‐amino)‐1,2‐dioxohexan‐3‐yl)amino)‐1‐oxopentan‐2‐yl)amino)‐1‐oxopentan‐2‐yl)carbamate] | 16 ± 1 nM | 9% | 75% | 26% | 48% | 19% | -2% | – | – | –
7 | CC(C)C[C@H](NC(=O)OCc1ccccc1)C(=O)N[C@@H](CC(=O)OC(C)(C)C)C(=O)N[C@@H](CC(C)C)C(=O)C(=O)Nc1ccccc1Oc1ccccc1 [Compound 18, tert ‐Butyl‐(S)‐3‐((S)‐2‐(((benzyloxy)carbonyl)amino)‐4‐methylpentanamido)‐4‐(((S)‐5‐methyl‐1,2‐dioxo‐1‐((2‐phenoxyphenyl)amino)hexan‐3‐yl)amino)‐4‐oxobutanoate] | 76 ± 14 nM | 2% | 59% | 28% | 7% | 18% | -12% | – | – | –

Now from value to compound, other results behind:

Row | IC50 [1] | inhibition at 1 µM [3] | inhibition at 1 µM ([2]; c = 1 µM, n=1) | inhibition at 0.1 µM ([2]; c=100 nM) | inhibition at 1 µM [5] | inhibition at 0.1 µM [5] | inhibition at 1 µM ([4]; c = 1 µM, n=1) | Structure (SMILES) | inhibition at 1 µM [2] | inhibition at 0.1 µM [2] | inhibition at 1 µM [4]
8 | 203 ± 22 nM | -4% | 32% | 12% | 7% | 8% | -7% | CC(C)C[C@H](NC(=O)OCc1ccccc1)C(=O)N[C@@H](CC(C)C)C(=O)N[C@@H](CC(C)C)C(=O)C(=O)Nc1ccccc1Oc1ccccc1 [Compound 8, Benzyl‐((S)‐4‐methyl‐1‐(((S)‐4‐methyl‐1‐(((S)‐5‐methyl‐1,2‐dioxo‐1‐((2‐phenoxyphenyl)‐amino)hexan‐3‐yl)amino)‐1‐oxopentan‐2‐yl)amino)‐1‐oxopentan‐2‐yl)carbamate] | – | – | –
9 | 45 ± 3 nM | 2% | 63% | 25% | 23% | 5% | -3% | CC(C)C[C@H](NC(=O)OCc1ccccc1)C(=O)N[C@@H](CC(C)C)C(=O)N[C@@H](CC(C)C)C(=O)C(=O)Nc1ccc(Oc2ccccc2)cc1 [Compound 10, Benzyl‐((S)‐4‐methyl‐1‐(((S)‐4‐methyl‐1‐(((S)‐5‐methyl‐1,2‐dioxo‐1‐((4‐phenoxyphenyl)‐amino)hexan‐3‐yl)amino)‐1‐oxopentan‐2‐yl)amino)‐1‐oxopentan‐2‐yl)carbamate] | – | – | –
10 | 26 ± 8 nM | 4% | 53% | 20% | 16% | 9% | -33% | Cc1ccc(NC(=O)C(=O)[C@H](CC(C)C)NC(=O)[C@H](CC(C)C)NC(=O)[C@H](CC(C)C)NC(=O)OCc2ccccc2)c(C)c1Oc1ccccc1 [Compound 12, Benzyl((S)‐1‐(((S)‐1‐(((S)‐1‐((2,4‐dimethyl‐3‐phenoxyphenyl)amino)‐5‐methyl‐1,2‐dioxo‐hexan‐3‐yl)amino)‐4‐methyl‐1‐oxopentan‐2‐yl)amino)‐4‐methyl‐1‐oxopentan‐2‐yl)carbama‐te] | – | – | –
11 | 46 ± 6 nM | -8% | 91% | 57% | 76% | 48% | 12% | CC(C)C[C@H](NC(=O)OCc1ccccc1)C(=O)N[C@@H](CC(=O)OC(C)(C)C)C(=O)N[C@@H](CC(C)C)C(=O)C(=O)Nc1ccccc1 [Compound 16, tert ‐Butyl‐(S)‐3‐((S)‐2‐(((benzyloxy)carbonyl)amino)‐4‐methylpentanamido)‐4‐(((S)‐5‐methyl‐1,2‐dioxo‐1‐(phenylamino)hexan‐3‐yl)amino)‐4‐oxobutanoate] | – | – | –
12 | 46 ± 1 nM | -10% | 88% | 43% | 69% | 36% | 11% | Cc1ccc(NC(=O)C(=O)[C@H](CC(C)C)NC(=O)[C@H](CC(=O)OC(C)(C)C)NC(=O)[C@H](CC(C)C)NC(=O)OCc2ccccc2)c(C)c1 [Compound 17, tert ‐Butyl‐(S)‐3‐((S)‐2‐(((benzyloxy)carbonyl)amino)‐4‐methylpentanamido)‐4‐(((S)‐1‐((2,4‐dime‐thylphenyl)amino)‐5‐methyl‐1,2‐dioxohexan‐3‐yl)amino)‐4‐oxobutanoate] | – | – | –
